Source: PubChem BioAssay AID1963981 (Molecular Pharmacology Branch, DTP, NCI, 2024)

Test system: 354836-022-R-J1-PDC multicell spheroid viability
Assay: Anticancer human tumor 354836-022-R-J1-PDC patient-derived head and neck squamous cell carcinoma cell line growth inhibition [PI3K]
Settings: for IC50: curve of first compound; for viability, T/C: stronger effect = lower value; active means viability on the fitted dose curve at most 10% of control; inactive means the rest
Text: Combinatorial screen of targeted agents with the PI3K inhibitors inavolisib, alpelisib, duvelisib, and copanlisib in multi-cell type tumor spheroids
A high-throughput screen of multi-cell type tumor spheroids was designed to identify active combinations of targeted small molecules and PI3K pathway inhibitors. Complex spheroids include a stromal component modeled by human endothelial cells (HUVEC) and fibroblasts modeled by human mesenchymal stem cells (MSCs). The concentration ranges selected for each drug and investigational agent were based upon clinically achievable concentrations if the clinical Cmax of the agent was known.
Compounds. The drugs and investigational agents: inavolisib (NSC800729), alpelisib (NSC765974), duvelisib (NSC772469), copanlisib (NSC816437), ipatasertib (NSC767898), afuresertib (NSC778305), talazoparib (NSC767125), sapanisertib (NSC764658), selumetinib (NSC741078), tovorafenib (DAY101, NSC766906), vemurafenib (NSC761431), ravoxertinib (NSC781343), sotorasib (NSC818433), MRTX1133 (NSC 836407), abemaciclib (NSC 768073), palbociclib (NSC758247), venetoclax (NSC 766270), SY5609 (NSC837396), enzalutamide (NSC755605), and darolutamide (NSC825331), were obtained from the National Cancer Institute (NCI) Developmental Therapeutics Program Chemical Repository. The FDA-approved anticancer drug set is available from the NCI Developmental Therapeutics Program. […] The stock solutions were prepared in dimethyl sulfoxide (DMSO, Sigma-Aldrich, St. Louis, MO, cat. D2650) at 800-fold the tested concentration and stored at -70 degrees C prior to their use. All drugs and investigational agents were tested over a range starting from a high concentration at or near the clinical Cmax and decreasing in half-log increments. If the clinical Cmax for an agent had not been determined, the highest concentration tested was 10 microM.
Cell Culture. All cells were maintained in an incubator at 37 degrees C and 5% CO2 with 95% humidity. The PDC lines were cultured according to standard operating procedures established by the NCI PDMR (https://pdmr.cancer.gov/sops/default.htm). All PDCs were thawed and cultured in Matrigel-coated flasks prepared with a working solution of 1X Ham's F-12 nutrient mix, without supplementation (Invitrogen, Waltham, MA, cat. 11765054), 100 U/mL penicillin-streptomycin (Invitrogen, cat. 15140122), and 2.5% Matrigel (Corning Inc., Corning, NY, cat. 354248) for the first three passages. The 354836-022-R-J1-PDC, 475296-252-R-J1-PDC, and 997726-040-R-J2-PDC lines were cultured in 6A media, which includes advanced DMEM/F-12 (Thermo Fisher Scientific, cat. 12634028), 10 mM HEPES (Thermo Fisher Scientific, cat. 15630080), 1X GlutaMAX supplement (Thermo Fisher Scientific, cat. 35050061), 0.1 mg/mL primocin (InvivoGen, San Diego, CA, cat. ant-pm-2), 10% defined fetal bovine serum, heat inactivated (HyClone Laboratories Inc., Logan, UT, cat. SH30070.03HI), 50% L-WRN conditioned media (ATCC, cat. CRL-3276), 1.25 mM N-Acetyl-L-cysteine (Sigma-Aldrich, cat. A9165), 10 mM nicotinamide (Sigma-Aldrich, cat. N0636), 1X B-27 supplement (Thermo Fisher Scientific, cat. 17504044), 1X N-2 supplement (Thermo Fisher Scientific, cat. 17502048), and 10 microM Y-27632 dihydrochloride (Tocris Bioscience, Bristol, United Kingdom, cat. 1254). The 624824-186-R-J2-PDC line was cultured in 6C/Colon 1B media, which includes all 6A media components plus 50 ng/mL human EGF recombinant protein (Thermo Fisher Scientific, cat. PHG0311). […]

[1] = second compound 0.00316 µM, first compound 0.0316 µM
[2] = second compound 0.00316 µM, first compound 0.1 µM
[3] = second compound 0.01 µM, first compound 0.0316 µM
[4] = second compound 0.01 µM, first compound 0.1 µM
[5] = second compound 0.0316 µM, first compound 0.0316 µM
[6] = second compound 0.0316 µM, first compound 0.1 µM
[7] = second compound 0.1 µM, first compound 0.0316 µM
[8] = second compound 0.1 µM, first compound 0.1 µM
[9] = second compound 0.316 µM, first compound 0.0316 µM
[10] = second compound 0.316 µM, first compound 0.1 µM
[11] = second compound 1 µM, first compound 0.0316 µM
[12] = second compound 1 µM, first compound 0.1 µM
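Further: spheroids exposed to agents for seven days before the viability read.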

CC(C)NCC(C(=O)N1CCN(c2ncnc3c2C(C)CC3O)CC1)c1ccc(Cl)cc1 (centres undefined) + CC(Nc1ccc2c(c1)OCCn1cc(N3C(=O)OCC3C(F)F)nc1-2)C(N)=O
333 nM: IC50 (second compound 0.0316 µM)
72.2 nM: IC50 (second compound 1 µM)
242 nM: IC50 (second compound 0.00316 µM)
590 nM: IC50 (second compound 0.1 µM)
202 nM: IC50 (second compound 0.316 µM)
active: viability, T/C (second compound 0.01 µM, first compound 10 µM) 8.88% | viability, T/C (second compound 0.316 µM, first compound 10 µM) 7.58% | viability, T/C (second compound 1 µM, first compound 10 µM) 9.1%
inactive: viability, T/C [1] 82.9% | viability, T/C [2] 69.4% | viability, T/C (second compound 0.00316 µM, first compound 0.316 µM) 42.8% | viability, T/C (second compound 0.00316 µM, first compound 1 µM) 26.7% | viability, T/C (second compound 0.00316 µM, first compound 3.16 µM) 22.1% | viability, T/C (second compound 0.00316 µM, first compound 10 µM) 12.5% | viability, T/C [3] 95.5% | viability, T/C [4] 68.5% | viability, T/C (second compound 0.01 µM, first compound 0.316 µM) 58.2% | viability, T/C (second compound 0.01 µM, first compound 1 µM) 24.4% | viability, T/C (second compound 0.01 µM, first compound 3.16 µM) 22.3% | viability, T/C [5] 74.5% | viability, T/C [6] 75% | viability, T/C (second compound 0.0316 µM, first compound 0.316 µM) 45.8% | viability, T/C (second compound 0.0316 µM, first compound 1 µM) 31.9% | viability, T/C (second compound 0.0316 µM, first compound 3.16 µM) 21.3% | viability, T/C (second compound 0.0316 µM, first compound 10 µM) 10.8% | viability, T/C [7] 75.4% | viability, T/C [8] 73.6% | viability, T/C (second compound 0.1 µM, first compound 0.316 µM) 68.5% | viability, T/C (second compound 0.1 µM, first compound 1 µM) 34.2% | viability, T/C (second compound 0.1 µM, first compound 3.16 µM) 18.6% | viability, T/C (second compound 0.1 µM, first compound 10 µM) 8.92% | viability, T/C [9] 62.4% | viability, T/C [10] 58.6% | viability, T/C (second compound 0.316 µM, first compound 0.316 µM) 44.7% | viability, T/C (second compound 0.316 µM, first compound 1 µM) 28.4% | viability, T/C (second compound 0.316 µM, first compound 3.16 µM) 16.2% | viability, T/C [11] 56.7% | viability, T/C [12] 45.9% | viability, T/C (second compound 1 µM, first compound 0.316 µM) 38.9% | viability, T/C (second compound 1 µM, first compound 1 µM) 28% | viability, T/C (second compound 1 µM, first compound 3.16 µM) 15.8%
328 nM: IC50 (second compound 0.01 µM)

Cn1ncnc1[C@H]1c2n[nH]c(=O)c3cc(F)cc(c23)N[C@@H]1c1ccc(F)cc1 + CC(Nc1ccc2c(c1)OCCn1cc(N3C(=O)OCC3C(F)F)nc1-2)C(N)=O
inactive: viability, T/C (second compound 0.00316 µM, first compound 0.000316 µM) 87.4% | viability, T/C (second compound 0.00316 µM, first compound 0.001 µM) 97.1% | viability, T/C (second compound 0.00316 µM, first compound 0.00316 µM) 91.6% | viability, T/C (second compound 0.00316 µM, first compound 0.01 µM) 101% | viability, T/C [1] 120% | viability, T/C [2] 89.8% | viability, T/C (second compound 0.01 µM, first compound 0.000316 µM) 88.4% | viability, T/C (second compound 0.01 µM, first compound 0.001 µM) 83.4% | viability, T/C (second compound 0.01 µM, first compound 0.00316 µM) 105% | viability, T/C (second compound 0.01 µM, first compound 0.01 µM) 92.6% | viability, T/C [3] 88.3% | viability, T/C [4] 84.3% | viability, T/C (second compound 0.0316 µM, first compound 0.000316 µM) 83% | viability, T/C (second compound 0.0316 µM, first compound 0.001 µM) 89.8% | viability, T/C (second compound 0.0316 µM, first compound 0.00316 µM) 95% | viability, T/C (second compound 0.0316 µM, first compound 0.01 µM) 111% | viability, T/C [5] 101% | viability, T/C [6] 75.5% | viability, T/C (second compound 0.1 µM, first compound 0.000316 µM) 87% | viability, T/C (second compound 0.1 µM, first compound 0.001 µM) 104% | viability, T/C (second compound 0.1 µM, first compound 0.00316 µM) 89.9% | viability, T/C (second compound 0.1 µM, first compound 0.01 µM) 89.1% | viability, T/C [7] 97.8% | viability, T/C [8] 70.3% | viability, T/C (second compound 0.316 µM, first compound 0.000316 µM) 69.1% | viability, T/C (second compound 0.316 µM, first compound 0.001 µM) 81.8% | viability, T/C (second compound 0.316 µM, first compound 0.00316 µM) 74.7% | viability, T/C (second compound 0.316 µM, first compound 0.01 µM) 72.6% | viability, T/C [9] 78.8% | viability, T/C [10] 60.4% | viability, T/C (second compound 1 µM, first compound 0.000316 µM) 58% | viability, T/C (second compound 1 µM, first compound 0.001 µM) 63% | viability, T/C (second compound 1 µM, first compound 0.00316 µM) 61.8% | viability, T/C (second compound 1 µM, first compound 0.01 µM) 56.8% | viability, T/C [11] 71.9% | viability, T/C [12] 53.4%
> 100 nM: IC50 (second compound 0.00316 µM) | IC50 (second compound 0.01 µM) | IC50 (second compound 0.0316 µM) | IC50 (second compound 0.1 µM) | IC50 (second compound 0.316 µM) | IC50 (second compound 1 µM)
